Measurements published in US6444651B1, “Antimicrobial agents for eucaryotic microorganisms and methods of growth suppression of eucaryotic microorganisms using these agents” (Asama Chemical Co., Ltd., priority 1997, dated 2002).

System: Fungi
Test: Preservation tests for milky-lotion type hair tonics (Example 9)
Design: key: +: Fungi appeared
Details: day 14; 37° C.; DNA 0.03%, control 0.1% Ethyl p-hydroxy benzoate
Procedure: A milky-lotion type hair tonic was prepared using the components described below. It was manufactured under the open system since microbial infection from the air was expected.
The oil phase (A) and aqueous phase (B) were heated to 85° C., respectively. Then, (A) and (B) were mixed and agitated to emulsification at the same temperature. A hair tonic was prepared after the mixture was cooled down to normal temperature.
The hair tonic prepared was poured into a bottle with 0.03% of the DNA. The bottle was sealed and kept at 37° C. for preservation tests. 0.1% Ethyl p-hydroxy benzoate was added to the hair tonic as a control instead of the DNA.

CCOC(=O)c1ccc(O)cc1 [Control, Ethyl p-hydroxy benzoate]
appearance of fungi in hair tonic: +
